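Following 48 hours of exposure in 96-well plates, responses at five concentrations were used to interpolate endpoints linearly. Abbreviation: GI50, concentration required for 50% inhibition of growth. At the TGI there is no net growth.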
Key:
Assay in all cases: NCI-60 cell line screen, 48 h
HL-60(TB) leukemia = test system: HL-60(TB) leukemia
SF-268 CNS = test system: SF-268 CNS
SK-MEL-2 melanoma = test system: SK-MEL-2 melanoma
LOX IMVI melanoma = test system: LOX IMVI melanoma
SF-295 CNS = test system: SF-295 CNS
HCT-15 colon = test system: HCT-15 colon
UACC-257 melanoma = test system: UACC-257 melanoma
RPMI-8226 leukemia = test system: RPMI-8226 leukemia
UACC-62 melanoma = test system: UACC-62 melanoma
MCF7 breast = test system: MCF7 breast
HOP-92 NSCLC = test system: HOP-92 NSCLC
CAKI-1 renal = test system: CAKI-1 renal
CCRF-CEM leukemia = test system: CCRF-CEM leukemia
OVCAR-8 ovarian = test system: OVCAR-8 ovarian
PC-3 prostate = test system: PC-3 prostate
COLO 205 colon = test system: COLO 205 colon
NCI-H460 lung = test system: NCI-H460 lung
A498 renal = test system: A498 renal
MDA-MB-231 breast = test system: MDA-MB-231 breast
K-562 leukemia = test system: K-562 leukemia
A549 NSCLC = test system: A549 NSCLC
SR leukemia = test system: SR leukemia
MOLT-4 leukemia = test system: MOLT-4 leukemia
NCI-H226 lung = test system: NCI-H226 lung
OVCAR-4 ovarian = test system: OVCAR-4 ovarian
786-0 renal = test system: 786-0 renal
SN12C renal = test system: SN12C renal
SK-MEL-28 melanoma = test system: SK-MEL-28 melanoma
U251 CNS = test system: U251 CNS
NCI/ADR-RES ovarian = test system: NCI/ADR-RES ovarian
NCI-H522 lung = test system: NCI-H522 lung
SW-620 colon = test system: SW-620 colon
BT-549 breast = test system: BT-549 breast
SK-OV-3 ovarian = test system: SK-OV-3 ovarian
EKVX NSCLC = test system: EKVX NSCLC
SK-MEL-5 melanoma = test system: SK-MEL-5 melanoma
SNB-75 CNS = test system: SNB-75 CNS
HT29 colon = test system: HT29 colon
MDA-MB-435 = test system: MDA-MB-435
HCC-2998 colon = test system: HCC-2998 colon
HCT-116 colon = test system: HCT-116 colon
SF-539 CNS = test system: SF-539 CNS
KM12 colon = test system: KM12 colon
RXF 393 renal = test system: RXF 393 renal
M14 melanoma = test system: M14 melanoma
OVCAR-3 ovarian = test system: OVCAR-3 ovarian
HS 578T breast = test system: HS 578T breast
DU-145 prostate = test system: DU-145 prostate
ACHN renal = test system: ACHN renal
OVCAR-5 ovarian = test system: OVCAR-5 ovarian
NCI-H23 lung = test system: NCI-H23 lung
TK-10 renal = test system: TK-10 renal
MALME-3M melanoma = test system: MALME-3M melanoma
IGROV1 ovarian = test system: IGROV1 ovarian
UO-31 renal = test system: UO-31 renal
SNB-19 CNS = test system: SNB-19 CNS
HOP-62 NSCLC = test system: HOP-62 NSCLC
T-47D breast = test system: T-47D breast

CNCCN(C)c1ccc(Nc2cc(NC3CC3)n3ncc(C#N)c3n2)cc1NC(C)=O was tested, and the GI50 (HL-60(TB) leukemia) was under 10 nM, the TGI (HL-60(TB) leukemia) was 498 nM and the GI50 (SF-268 CNS) was 18.2 nM. For the same compound, the TGI (SF-268 CNS) was 16.4 µM, the GI50 (SK-MEL-2 melanoma) was 20.2 nM and the TGI (SK-MEL-2 melanoma) was 445 nM. For the same compound, the GI50 (LOX IMVI melanoma) was 20.4 nM, the TGI (LOX IMVI melanoma) was 390 nM and the GI50 (SF-295 CNS) was 27.7 nM. The TGI (SF-295 CNS) was 12.5 µM, the GI50 (HCT-15 colon) was 290 nM and the TGI (HCT-15 colon) was over 100 µM. It also gave a GI50 (UACC-257 melanoma) of 16.3 nM, a TGI (UACC-257 melanoma) of 10.7 µM and a GI50 (RPMI-8226 leukemia) of under 10 nM. For the same compound, the TGI (RPMI-8226 leukemia) was 2640 nM, the GI50 (UACC-62 melanoma) was 19.5 nM and the TGI (UACC-62 melanoma) was 149 nM. For the same compound, the GI50 (MCF7 breast) was under 10 nM, the TGI (MCF7 breast) was 1590 nM and the GI50 (HOP-92 NSCLC) was under 10 nM. It also gave a TGI (HOP-92 NSCLC) of 46.6 nM, a GI50 (CAKI-1 renal) of 12.3 nM and a TGI (CAKI-1 renal) of 153 nM. The GI50 (CCRF-CEM leukemia) was under 10 nM, the TGI (CCRF-CEM leukemia) was 6 µM and the GI50 (OVCAR-8 ovarian) was 59.2 nM. It also gave a TGI (OVCAR-8 ovarian) of over 100 µM, a GI50 (PC-3 prostate) of under 10 nM and a TGI (PC-3 prostate) of 13.2 µM. The GI50 (COLO 205 colon) was under 10 nM, the TGI (COLO 205 colon) was 2330 nM and the GI50 (NCI-H460 lung) was under 10 nM. It also gave a TGI (NCI-H460 lung) of 12.4 µM, a GI50 (A498 renal) of under 11.7 nM and a TGI (A498 renal) of under 26 nM. It also gave a GI50 (MDA-MB-231 breast) of under 10 nM, a TGI (MDA-MB-231 breast) of 2170 nM and a GI50 (K-562 leukemia) of under 13.8 nM. The TGI (K-562 leukemia) was over 40.1 µM, the GI50 (A549 NSCLC) was 18.8 nM and the TGI (A549 NSCLC) was 12.5 µM. The GI50 (SR leukemia) was under 10 nM, the TGI (SR leukemia) was 5.73 µM and the GI50 (MOLT-4 leukemia) was 18.6 nM. The GI50 (NCI-H226 lung) was under 10 nM, the TGI (NCI-H226 lung) was 1230 nM and the GI50 (OVCAR-4 ovarian) was under 10 nM. For the same compound, the TGI (OVCAR-4 ovarian) was over 39.2 µM, the GI50 (786-0 renal) was 43.6 nM and the TGI (786-0 renal) was 13.5 µM. The GI50 (SN12C renal) was 75.2 nM, the TGI (SN12C renal) was over 64.2 µM and the GI50 (SK-MEL-28 melanoma) was 39.3 nM. The TGI (SK-MEL-28 melanoma) was 18.6 µM, the GI50 (U251 CNS) was under 10 nM and the TGI (U251 CNS) was over 100 µM. The GI50 (NCI/ADR-RES ovarian) was 3.36 µM, the TGI (NCI/ADR-RES ovarian) was over 100 µM and the GI50 (NCI-H522 lung) was under 10 nM. The TGI (NCI-H522 lung) was 1130 nM, the GI50 (SW-620 colon) was under 10 nM and the TGI (SW-620 colon) was 209 nM. For the same compound, the GI50 (BT-549 breast) was under 14 nM, the TGI (BT-549 breast) was 165 nM and the GI50 (SK-OV-3 ovarian) was 35.7 nM. For the same compound, the TGI (SK-OV-3 ovarian) was 668 nM, the GI50 (EKVX NSCLC) was under 13 nM and the TGI (EKVX NSCLC) was 4.04 µM. For the same compound, the GI50 (SK-MEL-5 melanoma) was under 10 nM, the TGI (SK-MEL-5 melanoma) was 462 nM and the GI50 (SNB-75 CNS) was under 10 nM. It also gave a TGI (SNB-75 CNS) of 51.9 nM, a GI50 (HT29 colon) of under 10 nM and a TGI (HT29 colon) of over 100 µM. It also gave a GI50 (MDA-MB-435) of 16.1 nM, a TGI (MDA-MB-435) of over 41.1 µM and a GI50 (HCC-2998 colon) of 17.5 nM. The TGI (HCC-2998 colon) was 16.4 µM, the GI50 (HCT-116 colon) was under 10 nM and the TGI (HCT-116 colon) was 195 nM. The GI50 (SF-539 CNS) was 14 nM, the TGI (SF-539 CNS) was 2360 nM and the GI50 (KM12 colon) was 25.9 nM. For the same compound, the TGI (KM12 colon) was over 80.1 µM, the GI50 (RXF 393 renal) was 10 nM and the TGI (RXF 393 renal) was 34.2 nM. For the same compound, the GI50 (M14 melanoma) was under 11.8 nM, the TGI (M14 melanoma) was 452 nM and the GI50 (OVCAR-3 ovarian) was under 10 nM. It also gave a TGI (OVCAR-3 ovarian) of 869 nM, a GI50 (HS 578T breast) of under 10 nM and a TGI (HS 578T breast) of 117 nM. For the same compound, the GI50 (DU-145 prostate) was 45.2 nM, the TGI (DU-145 prostate) was over 100 µM and the GI50 (ACHN renal) was 73 nM. For the same compound, the TGI (ACHN renal) was 15.4 µM, the GI50 (OVCAR-5 ovarian) was under 10 nM and the TGI (OVCAR-5 ovarian) was over 28.5 µM. For the same compound, the GI50 (NCI-H23 lung) was under 10 nM, the TGI (NCI-H23 lung) was 237 nM and the GI50 (TK-10 renal) was under 10 nM. For the same compound, the TGI (TK-10 renal) was 45.3 nM, the GI50 (MALME-3M melanoma) was 16.6 nM and the TGI (MALME-3M melanoma) was 3.18 µM. It also gave a GI50 (IGROV1 ovarian) of under 10.7 nM, a TGI (IGROV1 ovarian) of 961 nM and a GI50 (UO-31 renal) of 143 nM. It also gave a TGI (UO-31 renal) of 3.79 µM, a GI50 (SNB-19 CNS) of under 10 nM and a TGI (SNB-19 CNS) of over 100 µM. It also gave a GI50 (HOP-62 NSCLC) of 27.5 nM, a TGI (HOP-62 NSCLC) of over 54.4 µM and a GI50 (T-47D breast) of under 10 nM. The TGI (T-47D breast) was 1340 nM.
